Data published in a melting point compilation (Tetko et al.; mined from patent text by program, amines drawn as free bases though some values may be those of a salt).

Row | SMILES | melting point [°C]
1 | COC(=O)c1ccc(CN2CCOc3ccc([N+](=O)[O-])cc32)c(OC)c1 | 130 to 132
2 | COc1cccc(NC(=O)NC2N=C(c3ccccc3)c3ccc(C)cc3N(C)C2=O)c1 (stereo not drawn) | 184 to 188
3 | CCCCc1nc(Cl)c(COC)n1Cc1ccc(C(=O)O)cc1 | 126 to 128
4 | COc1cc(Nc2nccc(-c3sc(-c4cccnc4)nc3C)n2)cc(OC)c1 | 229 to 230
5 | NC(=O)CNC(=O)c1cccc(-c2cccc3oc(Cc4cc(F)cc(Cl)c4)cc23)c1 | 156 to 157
6 | COC(=O)c1cc(Br)c(OC)cc1O | 122 to 124
7 | CC(=O)NCC1CC1c1c(-c2cccnc2)ccc2nn(C)cc12 (stereo not drawn) | 136 to 138
8 | c1ccc(OC2CCN(CCc3c[nH]c4ccccc34)CC2)cc1 | 123 to 125
9 | CCCNC(=O)c1cnc2cc(C)ccn2c1=O | 194 to 196
10 | CCn1c(=O)ccc2cnc(Nc3ccc(OC)cc3)nc21 | 196 to 197
11 | CN(c1cccc2cc(-c3nccs3)[nH]c12)S(=O)(=O)c1ccsc1CCl | 190
12 | CCOC(=O)C=C(N)C(C)(C)OC(N)=O | 109 to 111
13 | C#Cc1c(C#N)nn(-c2c(Cl)cc(C(F)(F)F)cc2Cl)c1N | 215 to 216
14 | O=C(CCl)CCCc1ccc(CCCC(=O)CCl)cc1 | 70 to 71
15 | COc1ccc(-c2c(Cl)c(CNC(C)(C)C)nc3sc4c(c23)CCN(Cc2ccccc2)C4)cc1OC | 134 to 135
16 | COC(=O)C#CC(=O)c1ccc2c(c1)OCO2 | 95 to 97
17 | CCCCCCCSc1nc(C)c(O)c(C)n1 | 110 to 111
18 | CC1=NN=C(c2ccc([N+](=O)[O-])cc2)c2cc(Cl)c(Cl)cc2C1 | 231 to 233
19 | CCCc1nc2c(N)nc3cc(OCCCNS(C)(=O)=O)ccc3c2n1CC(C)C | 166 to 168
20 | CC(=O)OC1CSC(Oc2ccc(-c3cncc(C)c3)nc2)C(OC(C)=O)C1OC(C)=O (stereo not drawn) | 189 to 190
21 | Cc1c(C(=O)c2ccc(F)cc2)cccc1[N+](=O)[O-] | 64
22 | CCCCCCC(C)Oc1ccc(-c2ccc(O)cc2)cc1F (stereo not drawn) | 65.2 to 66.7

Row | SMILES | melting point [°C]
23 | O=C1C2=C(SCCS2)C(O)N1c1ccc2c(Cl)ccnc2n1 (stereo not drawn) | 300 to 305
24 | Cc1cc(C)c(COc2cccnc2NC(=S)Nc2ccc(Cl)cc2)c(C)c1 | 180 to 182
25 | Fc1ccc(C2NCCc3c2[nH]c2ccccc32)cc1F (stereo not drawn) | 151
26 | CCn1cc(C(=O)O)c(=O)cc1-c1c(Cl)cccc1Cl | 200 to 201
27 | Clc1ccc(Cl)c(Oc2cccc(Cl)n2)c1 | 82 to 84
28 | Cc1ccc2c(c1)C(=O)c1ccc(C(N)=O)cc1S2(=O)=O | 305
29 | COC(=O)NC1Cc2ccc([N+](=O)[O-])cc2C1OC(C)=O (stereo not drawn) | 164 to 167
30 | CC(S)=C(C#N)C(=O)Nc1ccc(C(F)(F)F)cc1 | 183 to 184
31 | [N-]=[N+]=NC1CC(n2cc(I)c(=O)[nH]c2=O)OC1CO (stereo not drawn) | 126 to 130
32 | C[C@@H](O)c1nccc(N2CCN(c3nc4ccncc4o3)CC2)n1 | 181 to 183
33 | COC1=C(OC)C(=O)C(CCCCCCCCCOC(C)=O)=C(C)C1=O | 30
34 | CCC1(CC)c2cc(C(=O)O)c(C(=O)O)cc2C(CC)(CC)N1C(=O)c1ccccc1 | 244 to 246
35 | NC(=O)c1cccc2c3c(cc([N+](=O)[O-])c12)N(C(=O)C(F)(F)F)CC3CCl (stereo not drawn) | 272 to 277
36 | CC(C)(C)[Si](C)(C)Oc1ccc2c(ccc3c4ccc(O[Si](C)(C)C(C)(C)C)cc4oc(=O)c23)c1 | 154 to 156
37 | CC(C)CCCC(C)C1CCC2C3=C(CCC21C)C1(C)CCC(O)C(C)(C)C1CC3 (stereo not drawn) | 154 to 155
38 | COC(=O)c1cc(NC(=O)OC(C)(C)C)c(NC(=O)CC(=O)c2cccc(C#N)c2)cc1I | 162 to 166
39 | Cc1nc2ncnn2c(N2CCC(C)CC2)c1-c1ccc(F)cc1Cl | 236
40 | COP(=O)(OC)[C@H](C)NC(=O)[C@H](C)NC(=O)CNC(=O)CNC(=O)OCc1ccccc1 | 124 to 127
41 | Oc1cc(-c2cccc(C(F)(F)F)c2)nc2ccnn12 | 305 to 310
42 | Cc1ccc(-c2nc3ccc(N(C)C)cn3c2CNC(=O)CC(C)C)cc1 | 173 to 175
43 | CCC(C)NCc1nc(-c2ccc(OC)c(OC)c2)c2cc(OC)c(OC)cc2n1 (stereo not drawn) | 118 to 120
44 | Cc1[nH]c(=O)[nH]c1C(=O)c1ccco1 | 214 to 216

Row | SMILES | melting point [°C]
45 | COc1ccc(C2(C34CC5CC(CC(C5)C3)C4)N=C(N)N(C)C2=O)cc1OC (stereo not drawn) | 130
46 | COC(=O)c1cc(-c2cccc([N+](=O)[O-])c2)cc2c1OCC2 | 53 to 57
47 | CC(=O)Oc1ccc(C=CC(=O)NC23CC4CC(CC(C4)C2)C3)cc1[N+](=O)[O-] | 179 to 180
48 | Cc1c(OCC(=O)O)cc2c(c1Cl)C(=O)C1(CCCC1)C2=O | 204 to 205
49 | CCc1c(CC#N)ccc(O)c1O | 101 to 103
50 | CC(=O)COc1c([N+](=O)[O-])ccc(F)c1C(C)=O | 64 to 65
51 | COc1ccc(C(C(Br)c2ccc(F)cc2)C(F)(F)F)cc1 (stereo not drawn) | 73 to 94
52 | Cc1c(Cl)c(Cl)c(Cl)c(Cl)c1C=O | 187 to 194
53 | Cc1nc(-n2cnn(Cc3ccc(F)cc3)c2=O)sc1C(=O)NCc1cn(C)cn1 | 225 to 226
54 | CC(C)(C)COC(=O)c1cc(Cl)c(F)c(Cl)c1 | 96 to 98
55 | ClC(Cl)(Cl)C1NCCO1 (stereo not drawn) | 73
56 | CCOC(=O)C(CCCCNC(=O)OC(C)(C)C)NC(=O)C=CC(=O)c1ccccc1 (stereo not drawn) | 91 to 94
57 | N#Cc1ccc(N2CCN(Cc3cnc4c(c3)NC(=O)[C@@H]3CCCN43)CC2)cc1F | 251 to 255
58 | C#CCN(c1ccc(C(=O)OC(C)(C)C)cc1)C1CCc2cc3nc(COC)[nH]c(=O)c3cc21 (racemic) | 191 to 192
59 | CC(C)(C)OC(=O)N1CCN(CCOC(N)=O)CC1 | 135 to 136
60 | COCOc1cccc2c(Br)cccc12 | 49 to 50
61 | CC(C)c1nc2cc(COc3ccc(CCCn4ccnc4)cc3)ccc2o1 | 76 to 77
62 | Nc1nc2c(s1)CCN(CC1CC1c1ccccc1)CC2 (stereo not drawn) | 109 to 113
63 | Cc1cc(C)c(-c2cn(C)c3nc(N)n(C)c(=O)c23)c(C)c1 | 229 to 231
64 | Cc1cc(OCc2ccccc2)cc(C)c1NC(=O)CCl | 165
65 | COc1ccc2c(Cc3c(Cl)cncc3Cl)nn3nnnc3c2c1 | 275 to 276
66 | CC(C)(C)c1c(Cl)nc(Cl)nc1Cl | 58 to 59

The next lines start with the values.

Row | melting point [°C] | SMILES
67 | 180 to 183 | CCCc1c(OCCCOc2ccc(C(=O)O)cc2)ccc(C(C)=O)c1O
68 | 140 to 141 | O=C(N1Cc2ccccc2Nc2ccccc21)C(F)(F)F
69 | 235 | O=C(CO)Nc1ccccc1-c1nnc(C(c2ccc(Cl)cc2)c2c(Cl)cc(-n3ncc(=O)[nH]c3=O)cc2Cl)o1 (stereo not drawn)
70 | 109 to 110 | COC(=O)c1c(O)c2cc(OCc3ccccc3)ccc2c(=O)n1CC(C)C
71 | 135 to 137 | CC(C)(C(=O)Nc1cccc(Cl)c1)N1OCC(CI)=C(c2ccccc2)C1=O
72 | 134 to 136 | COc1ccccc1N1CCN(CCNc2ccccc2C(N)=O)CC1
73 | 208 to 209 | COc1ccc(-c2nc(N)nc(NC(=O)c3cccnc3)n2)c2ccccc12
74 | 189 to 190 | COc1ccc(C2=NN(Cc3ccc(C(=O)O)cc3)C(=O)[C@H]3CCCC[C@@H]23)cc1OC1CCCC1 (relative stereo)
75 | 126 to 128 | O=C(c1coc(-c2ccc(CCl)cc2)n1)N1CCCC1
76 | 220 to 225 | NCC1(c2onc(-c3ccc(O)cc3)c2-c2ccccc2)CC1
77 | 127 to 130 | CC(=O)c1cc(F)ccc1Oc1nc2ccc(N=[N+]=[N-])cc2cc1Cc1ccccc1
78 | 178 to 182 | COc1ccc(-c2sc(N)c(C(=O)c3ccc(Cl)cc3)c2CN(C2CCCCC2)C2CCCCC2)cc1
79 | 106 to 107 | CC(C)Nc1cccnc1N1CCN(C(=O)c2ccc(C(=O)NCCN3CCCCC3)cc2)CC1
80 | 208 to 210 | COC(=O)c1ccc2cc(-c3ccccc3)[nH]c2c1
81 | 94 to 98 | Cc1[nH]c2ccc(OC(C)C(C)N3CCCC3)cc2c1C(=O)OCc1ccccc1 (stereo not drawn)
82 | 183 to 184 | CCCCCC/C=C(\C(=O)Nc1ccc(C(=O)O)cc1)c1ccc2c(c1)C(C)(C)CCC2(C)C

Row | melting point [°C] | SMILES
83 | 106 to 107 | COc1ccc(CCn2cnc3ccc(-c4cccc(C(=O)NCCN5CCCC5)c4)nc32)cc1OC
84 | 131 to 132 | CCOC(=O)COc1ccc(C(=O)Nc2ccccc2S(=O)(=O)c2ccccc2C#N)cc1
85 | 171 to 173 | CC(C)(C)OC(=O)Nc1cccc(C(=O)NCC(=O)OCc2ccccc2)c1
86 | 214 to 215 | NC(=O)C(c1ccc(C(=O)O)cc1)C(Cc1ccccc1)c1ccccc1N1CCCCC1 (stereo not drawn)
87 | 39 to 43 | ClCc1cccc(OCc2ccc3ccccc3n2)c1
88 | 166 to 167 | O=C(CCN1CCN(c2cccc(C(F)(F)F)c2)CC1)c1ccc2oc3ccc(C(=O)CCN4CCN(c5cccc(C(F)(F)F)c5)CC4)cc3c(=O)c2c1
89 | 140 | COc1ccc(NC(=O)O[C@H]2COC(c3ccccc3)=N[C@@H]2c2ccccc2)cc1 (racemic)
90 | 158 to 160 | CCNC(=O)c1sc(-n2ccc(OCc3ccccc3)cc2=O)cc1C
91 | 92 to 100 | CCCn1cc(Cc2ccc(C(=O)O)cc2OC)c2cc(CC(C)C(=O)N3CCCC3)ccc21 (stereo not drawn)
92 | 103 to 104 | CCOC(=O)c1ccc(-c2ccc(OC)cc2)cc1
93 | 115 to 117 | CC(=NOC(=O)Nc1ccccc1)C(C)N(C(=O)CCl)c1c(C)cccc1C (stereo not drawn)
94 | 173 to 174 | COc1ccc(COc2cccc(C(=O)Nc3ccc(S(C)(=O)=O)cc3)c2)cc1
95 | 90 | CN1CCC(c2c[nH]c3ccc(C(=O)c4ccccn4)cc23)CC1
96 | 173 to 175 | CC(=O)c1cccc(-c2ccc3nc(-c4ccc(Cl)cc4)cn3c2)c1
97 | 84 to 87 | COC(=O)C(Cc1ccc(OCCn2c(=O)oc3cc(C(O)c4ccccc4)ccc32)cc1)C(=O)OC (stereo not drawn)
98 | 184 to 186 | Cc1c(CNC(=O)NO)c2cc(OCc3ccc4ccccc4n3)ccc2n1Cc1ccc(Cl)cc1
